Results on seven compounds are retold here after patent publication US11542266B1, “Substituted piperidines as BTK inhibitors” (HAISCO PHARMACEUTICALS PTE. LTD., priority 2019, dated 2023).

As usually defined, the IC50 is the concentration at which inhibition is half-maximal. Low readings indicate greater potency, high ones weaker potency. For orientation: bioavailability means the share of a dose that reaches the circulation, judged against a reference dose that is usually intravenous.

Structures are written as SMILES.

Data set [1] has as its target BTK protein (Mus musculus (Mouse), UniProt P35991). The experiment in a line: Detection of BTK protein degradation in spleen of mice. It counts as in vivo. The note with it: po, 72 h, female ICR mice, 3 consecutive days of intragastric administration, read-out: DD50 value of compounds on BTK protein degradation in spleen of mice. The procedure: Female ICR mice, 6-8 weeks old, were purchased from BEIJING VITAL RIVER LABORATORY ANIMAL TECHNOLOGY CO., LTD, and the experiment was started after 3 days of adaptation. After 3 consecutive days of intragastric administration of different doses of the compound, the spleen of mice was taken, the spleen cells were collected, and RIPA lysis buffer (Beyotime, Cat. P0013B) was added. The cells were lysed on ice for 15 minutes, and centrifuged at 12000 rpm at 4° C. for 10 minutes. The protein sample of the supernatant was collected, and the protein was quantified by using the BCA kit (Beyotime, Cat. P0009), and then the protein was diluted to 0.25 mg/mL. The expressions of BTK (CST, Cat. 8547S) and the internal reference β-actin (CST, Cat. 3700S) were detected using a fully automated western blot quantitative analyzer (Proteinsimple). The expression level of BTK relative to the internal reference was calculated using Compass software, and the DD50 value was calculated using Origen9.2 software according to formula (4). Specifically, the BTKadministration denoted the expression level of BTK in administration groups at different doses, and the BTKvehicle denoted the expression level of BTK in the vehicle control group. BTK %=BTKadministration/BTKvehicle×100 formula (4)

Data set [2] concerns Mino cells. Nature of the data set: Inhibition of cell proliferation, Mino cells (Cell Viability Assay, 72 h). The note with it: Homo sapiens. It counts as cell-based, human. The method, boiled down: (§1)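 RPMI1640 + 10% FBS cultures seeded at 20000/well (SU-DHL-4) or 5000/well (Mino, SU-DHL-6), exposed to compound dilutions in triplicate for 72 h at 37 °C, 5% CO2, DMSO vehicle control. Viability read by luminescent reagent; IC50 from dose-response and Max inhi. % = (1 − T72 treated/T72 vehicle)×100 at top concentration.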

Data set [3] concerns SU-DHL-4 cells. Nature of the data set: Inhibition of cell proliferation, SU-DHL-4 cells (Cell Viability Assay, 72 h). The class given is cell-based, human. The note with it: Homo sapiens. The method, boiled down: as §1
Data set [4] has as its system SU-DHL-6 cells. Nature of the data set: Inhibition of cell proliferation, SU-DHL-6 cells (Cell Viability Assay, 72 h). The note with it: Homo sapiens. The class given is cell-based. The procedure: SU-DHL-4, Mino, and SU-DHL-6 cells, in the culture medium of RPMI1640+10% FBS, were cultured in an incubator at 37° C. under 5% CO2. Cells were plated in a 96-well plate. Specifically, SU-DHL-4 cells were at 20000/well, Mino and SU-DHL-6 cells were at 5000/well, with 90 μL/well. 10 μL of the compounds at different concentrations were added to each well. There were 3 replicate wells for each concentration, and the last column, added with DMSO, was used as a vehicle control group. The cultures were continued for 72 hours at 37° C. under 5% CO2. After 72 hours, 100 μL of detection reagent (Cell Viability Assay, Promega, G7573) was added to each well, and the cultures were uniformly mixed for 2 minutes, and incubated at room temperature for 10 minutes. The fluorescence signal value was measured with a microplate reader (PHERAstar FSX). The IC50 value of the compound on cell proliferation inhibition was calculated using Origin 9.2 software, and the inhibition rate at the highest concentration of the compound (Max inhi. %) was calculated according to formula (1). Max inhi. %=(1-T72 administration/T72 vehicle)×100 Formula (1).

Data set [5] relates to OCI-LY10 cells. Nature of the data set: Inhibition of cell proliferation, OCI-LY10 cells (Cell Viability Assay, 72 h). It counts as cell-based. The note with it: Homo sapiens. As to the method: (§2) OCI-LY10 and TMD-8 cells, in the culture medium of RPMI1640+10% FBS, were cultured in an incubator at 37° C. under 5% CO2. Cells were plated in a 96-well plate. Specifically, OCI-LY10 cells were at 10000/well, and TMD-8 cells were at 8000/well, with 90 μL/well. These cells were cultured at 37° C. under 5% CO2 overnight. On the next day, 10 μL of the compounds at different concentrations were added to each well. There were 3 replicate wells for each concentration, and the last column, added with DMSO, was used as a vehicle control group. The cultures were continued for 72 hours at 37° C. under 5% CO2. After 72 hours, 50 μL of detection reagent (Cell Viability Assay, Promega, G7573) was added to each well, and the cultures were uniformly mixed for 2 minutes, and incubated at room temperature for 10 minutes. The fluorescence signal value was measured with an Envision2104 plate reader (PerkinElmer). The inhibition rate was calculated using formula (2), wherein RLUcompound was the readout of the drug treated group, RLUcontrol was the average value of the vehicle control group, and RLUblank was the average value of the cell-free wells. The IC50 value was calculated using GraphPad Prism software. IR (%)=(1−(RLUcompound-RLUblank)/(RLUcontrol-RLUblank))*100% formula (2)

Data set [6] concerns TMD-8 cells. Nature of the data set: Inhibition of cell proliferation, TMD-8 cells (Cell Viability Assay, 72 h). It counts as cell-based. The note with it: Homo sapiens, TMD8. The procedure:
as §2

The nature of data set [7]: Pharmacokinetic experiment in rats (i.g. vehicle 0.5% MC). It counts as in vivo. The note with it: Sprague-Dawley (SD), rat, po; male SD rats, plasma, i.g. 20 mg/kg, vehicle 0.5% MC; read-out: AUC0-t. The method, boiled down: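 Male SD rats (200–250 g, 6–8 weeks, n=6 per compound) were dosed once i.v. or intragastrically after a 12–14 h fast and fed 4 h post-dose. Orbital blood was drawn into EDTA-K2 tubes at 0–24 h (from 5 min i.v., from 15 min oral). Plasma was quantified by LC-MS/MS for PK parameters and bioavailability.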

Data set [8] in a line: Pharmacokinetic experiment in rats (i.g. vehicle DMSO/Solutol/PEG-400/SBE-β-CD). The note with it: Sprague-Dawley (SD), rat, plasma, po, male SD rats; for bioavailability: i.g. 20 mg/kg (DMSO/Solutol/PEG-400/SBE-β-CD) vs i.v. 5 mg/kg; for AUC(0-t): i.g. 20 mg/kg, vehicle 5% DMSO + 5% Solutol + 30% PEG-400 + 60% (20%SBE-β-CD). It counts as in vivo. As to the method:
Objective: In this experiment, a single dose of each test compound was administered to SD rats intravenously and intragastrically, the concentrations of the test compound in plasma of rats were measured, and the pharmacokinetic characteristics and bioavailability of the test compound in rats were evaluated.
Experimental animals: Male SD rats, 200-250 g, 6-8 weeks old, 6 rats/compound. The experimental animals were purchased from CHENGDU DOSSY EXPERIMENTAL ANIMALS CO., LTD.
Experimental method: On the day of the experiment, 6 SD rats were randomly grouped according to their body weight. The animals were fasted with water available for 12 to 14 hours one day before the administration of a test compound, and were fed 4 hours after the administration.
Sampling: Before and after the administration, 0.1 mL of blood was taken from the orbit of the rats under isoflurane anesthesia, and placed in an EDTAK2 centrifuge tube. Centrifugation was carried out at 5000 rpm at 4° C. for 10 min and the plasma was collected.
Time points for plasma collection in G1 group: 0, 5 min, 15 min, 30 min, 1 h, 2 h, 4 h, 6 h, 8 h, and 24 h.
Time points for plasma collection in G2 group: 0, 15 min, 30 min, 1 h, 2 h, 4 h, 6 h, 8 h, and 24 h.
Before analysis and detection, all samples were stored at −80° C. The samples were analyzed quantitatively by LC-MS/MS.

Chain of BTK protein (P35991 whole entry): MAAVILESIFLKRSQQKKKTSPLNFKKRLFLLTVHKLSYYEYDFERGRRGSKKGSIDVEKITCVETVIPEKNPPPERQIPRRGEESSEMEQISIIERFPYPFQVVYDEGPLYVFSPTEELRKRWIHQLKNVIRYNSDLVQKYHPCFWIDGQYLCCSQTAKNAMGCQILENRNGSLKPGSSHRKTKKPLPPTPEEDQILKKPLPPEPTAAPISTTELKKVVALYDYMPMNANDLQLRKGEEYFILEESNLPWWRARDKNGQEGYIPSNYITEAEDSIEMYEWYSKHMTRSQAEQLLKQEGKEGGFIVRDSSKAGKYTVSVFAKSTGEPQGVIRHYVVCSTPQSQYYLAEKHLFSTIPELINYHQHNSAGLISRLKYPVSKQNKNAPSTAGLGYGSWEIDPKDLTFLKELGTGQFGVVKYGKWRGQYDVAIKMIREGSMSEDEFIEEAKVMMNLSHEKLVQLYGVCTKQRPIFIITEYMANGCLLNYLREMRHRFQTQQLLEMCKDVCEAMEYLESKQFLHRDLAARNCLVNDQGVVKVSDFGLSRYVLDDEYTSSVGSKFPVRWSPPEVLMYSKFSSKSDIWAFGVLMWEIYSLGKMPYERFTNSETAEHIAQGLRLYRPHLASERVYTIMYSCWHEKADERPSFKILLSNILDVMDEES

For the compound `Nc1ncnc2c1c(-c1ccc(Oc3ccccc3)cc1)nn2C1CCN(C2CCN(C3CN(c4ccc5c(c4)C(=O)N(C4CCC(=O)NC4=O)C5=O)C3)CC2)CC1` (stereo not shown) [Compound 8-1, 5-(3-(4-(4-amino-3-(4-phenoxyphenyl)-1H-pyrazolo[3,4-d]pyrimidin-1-yl)-[1,4′-bipiperidin]-1′-yl)azetidin-1-yl)-2-(2,6-dioxopiperidin-3-yl)isoindoline-1,3-dione], in data set [1], the ED50 worked out at 3.8 mg/kg.

`Nc1ncnc2c1c(-c1ccc(Oc3ccccc3)cc1)nn2C1CCN(C2CN(C3CN(c4ccc5c(c4)C(=O)N([C@@H]4CCC(=O)NC4=O)C5=O)C3)C2)CC1` [Compound 17-a, 5-[3-[3-[4-[4-amino-3-(4-phenoxyphenyl)pyrazolo[3,4-d]pyrimidin-1-yl]-1-piperidyl]azetidin-1-yl]azetidin-1-yl]-2-[(3R)-2,6-dioxo-3-piperidyl]isoindoline-1,3-dione]: the figures for the IC50 in data set [2], in data set [3] and in data set [4] were 8 nM, 481 nM and 524 nM, respectively. The ED50 in data set [1] worked out at 19.8 mg/kg.

As for `Nc1ncnc2c1c(-c1ccc(Oc3ccccc3)cc1)nn2C1CCN(C2CN(C3CN(c4ccc5c(c4)C(=O)N([C@H]4CCC(=O)NC4=O)C5=O)C3)C2)CC1` [Compound 17-b, 5-[3-[3-[4-[4-amino-3-(4-phenoxyphenyl)pyrazolo[3,4-d]pyrimidin-1-yl]-1-piperidyl]azetidin-1-yl]azetidin-1-yl]-2-[(3S)-2,6-dioxo-3-piperidyl]isoindoline-1,3-dione], the half-maximal inhibitory concentration (IC50) in data set [2] turned out to be 7.2 nM; in data set [3] it was 460 nM; in data set [4], 662 nM. In data set [1], the ED50 came to 2.2 mg/kg.

In the case of `Nc1ncnc2c1c(-c1ccc(Oc3ccccc3)cc1)nn2C1CCN(C2CCN(C3CN(c4ccc5c(c4)C(=O)N(C4CCC(=O)NC4=O)C5=O)C3)CC2F)CC1` (stereo not drawn) [Compound 18-1, cis-5-(3-(4-(4-amino-3-(4-phenoxyphenyl)-1H-pyrazolo[3,4-d]pyrimidin-1-yl)-3′-fluoro-[1,4′-bipiperidin]-1′-yl)azetidin-1-yl)-2-(2,6-dioxopiperidin-3-yl)isoindoline-1,3-dione], the IC50 in data set [2] was found to be 18 nM; in data set [3], 20 nM; in data set [4] it was 29 nM; in data set [5], 4 nM; in data set [6] it was 8 nM. Besides, in data set [7], the AUC(0-t) amounted to 218 ± 68 ng·h/mL. The ED50 in data set [1] was 1.9 mg/kg.

As to `Nc1ncnc2c1c(-c1ccc(Oc3ccccc3)cc1)nn2[C@@H]1CCN(C2CCN(C3CN(c4ccc5c(c4)C(=O)N(C4CCC(=O)NC4=O)C5=O)C3)CC2)C[C@H]1F` (stereo partly drawn) [Compound 40, 5-(3-((3R,4R)-4-(4-amino-3-(4-phenoxyphenyl)-1H-pyrazolo[3,4-d]pyrimidin-1-yl)-3-fluoro-[1,4′-bipiperidin]-1′-yl)azetidin-1-yl)-2-(2,6-dioxopiperidin-3-yl)isoindoline-1,3-dione], the 50% inhibitory concentration (IC50) in data set [2] is 7.3 nM; in data set [3], 74 nM; in data set [4] it was 54 nM; in data set [5], 3 nM; in data set [6] it was 12 nM. The bioavailability in data set [8] came to 17.4 ± 4%. Moreover, the AUC(0-t) in data set [8] was 5420 ± 1260 ng·h/mL. In data set [1], the ED50 is 2.1 mg/kg.

`Nc1ncnc2c1c(-c1ccc(Oc3ccccc3)cc1)nn2[C@H]1CCN(C2CCN(C3CN(c4ccc5c(c4)C(=O)N(C4CCC(=O)NC4=O)C5=O)C3)CC2)C[C@H]1F` (stereo partly drawn) [Compound 42, 5-(3-((3R,4S)-4-(4-amino-3-(4-phenoxyphenyl)-1H-pyrazolo[3,4-d]pyrimidin-1-yl)-3-fluoro-[1,4′-bipiperidin]-1′-yl)azetidin-1-yl)-2-(2,6-dioxopiperidin-3-yl)isoindoline-1,3-dione]: the IC50 was determined as 15 nM in data set [2]; 382 nM in data set [3]; 177 nM in data set [4]; 3 nM in data set [5]; 16 nM in data set [6]. The compound further had a bioavailability in data set [8] of 9.14 ± 2.5%. Also, the AUC(0-t) in data set [8] amounted to 1200 ± 327 ng·h/mL. The ED50 in data set [1] worked out at 1.9 mg/kg.

As for `Nc1ncnc2c1c(-c1ccc(Oc3ccccc3)cc1)nn2[C@@H]1CCN(C2CCN(C3CN(c4ccc5c(c4)C(=O)N(C4CCC(=O)NC4=O)C5=O)C3)CC2)C[C@@H]1F` (stereo partly drawn) [Compound 45, 5-(3-((3S,4R)-4-(4-amino-3-(4-phenoxyphenyl)-1H-pyrazolo[3,4-d]pyrimidin-1-yl)-3-fluoro-[1,4′-bipiperidin]-1′-yl)azetidin-1-yl)-2-(2,6-dioxopiperidin-3-yl)isoindoline-1,3-dione], the IC50 in data set [2] turned out to be 9.6 nM; in data set [3], 110 nM; in data set [4], 125 nM; in data set [5], 3 nM; in data set [6], 16 nM. The bioavailability in data set [8] turned out to be 19.7 ± 8.5%. Moreover, in data set [8], the AUC(0-t) came to 3440 ± 1490 ng·h/mL. For the same compound, in data set [1], the ED50 worked out at 1.4 mg/kg.
